Source: ChEMBL document CHEMBL4765281, “Development of a novel nitric oxide (NO) production inhibitor with potential therapeutic effect on chronic inflammation” (Eur J Med Chem, 2020)

Experiments:
RAW264.7 [1] = test: Inhibition of LPS-induced nitric oxide production in mouse RAW264.7 cells at 10 uM measured after 24 hrs by Griess reagent based assay relative to control; format: functional
RAW264.7 [2] = test: Inhibition of LPS-induced nitric oxide production in mouse RAW264.7 cells measured after 24 hrs by Griess reagent based assay; format: functional, cell-based; conditions: RAW264.7, 24 h
RAW264.7 [3] = test: Cytotoxicity against mouse RAW264.7 cells assessed as reduction in cell viability measured after 24 hrs by MTT assay; format: cell-based; conditions: RAW264.7, 24 h
RAW264.7 [4] = test: Inhibition of LPS-induced nitric oxide production in mouse RAW264.7 cells; format: functional, cell-based

O=c1cc(-c2ccc(O)c(O)c2)oc2cc(O)cc(O)c12 [LUTEOLIN]
inhibition at 10 µM (RAW264.7 [1]): 54.6%
IC50 (RAW264.7 [2]): 9.2 µM
IC50 (RAW264.7 [3]): > 40 µM

CCOc1cc(OC)cc(OC)c1C(=O)/C=C/c1cccc(OC)c1
inhibition at 10 µM (RAW264.7 [1]): 85.6%
IC50 (RAW264.7 [2]): 2.7 µM
IC50 (RAW264.7 [3]): 34 µM

COc1cccc(C(=O)/C=C/c2cc(OC)c(OC)c(OC)c2)c1
IC50 (RAW264.7 [4]): 2.88 µM

COc1ccc(/C=C/C(=O)c2ccccc2O)cc1
inhibition at 10 µM (RAW264.7 [1]): 76.7%

COc1cc(C(=O)/C=C/c2cc(OC)c(OC)c(OC)c2)ccc1O
IC50 (RAW264.7 [4]): 4.19 µM

COc1cccc(/C=C/C(=O)c2c(OC)cc(OC)cc2OC(C)=O)c1
inhibition at 10 µM (RAW264.7 [1]): 84.6%
IC50 (RAW264.7 [2]): 3.6 µM
IC50 (RAW264.7 [3]): 30.7 µM

COc1cc(O)c(C(=O)/C=C/c2cc(OC)c(OC)c([N+](=O)[O-])c2)c(OC)c1
inhibition at 10 µM (RAW264.7 [1]): 30.8%

COc1cc(O)c(C(=O)/C=C/c2cccnc2)c(OC)c1
inhibition at 10 µM (RAW264.7 [1]): 78%

COc1cc(O)c(C(=O)/C=C/c2ccc(OCCCN3CCCCC3)c(OC)c2)c(OC)c1
inhibition at 10 µM (RAW264.7 [1]): 74.8%

CC1(C)C=Cc2cc(/C=C/C(=O)c3ccc(O)cc3O)ccc2O1
IC50 (RAW264.7 [4]): 2.2 µM

COc1cc(O)c(C(=O)/C(F)=C/c2ccc(OC)c(OC)c2)c(OC)c1
inhibition at 10 µM (RAW264.7 [1]): 62.6%

COc1cc(O)c(C(=O)/C(C)=C/c2ccc(C)cc2)c(OC)c1
inhibition at 10 µM (RAW264.7 [1]): 56.8%

O=C(/C=C/c1ccccc1O)c1ccsc1
IC50 (RAW264.7 [4]): 5.75 µM

COc1cc(O)c(C(=O)/C=C/c2ccc(Br)cc2)c(OC)c1
inhibition at 10 µM (RAW264.7 [1]): 70.2%

CC1(C)C=Cc2c(ccc(C(=O)/C=C/c3ccc(O)cc3)c2O)O1
IC50 (RAW264.7 [4]): 10.2 µM

COc1cc(O)c(C(=O)/C=C/c2ccc3c(c2)OCO3)c(OC)c1
inhibition at 10 µM (RAW264.7 [1]): 70%

COc1cc(O)c(C(=O)/C=C/c2ccc(OCCCO)cc2)c(OC)c1
inhibition at 10 µM (RAW264.7 [1]): 78.2%

COc1cc(O)c(C(=O)/C=C/c2cc(OC)c(OC)c(OC)c2)c(OC)c1
inhibition at 10 µM (RAW264.7 [1]): 77.4%

COc1cc(O)c(C(=O)/C=C/c2cc(OC)c(OC)cc2OC)c(OC)c1
inhibition at 10 µM (RAW264.7 [1]): 78.4%

COc1cc(O)c(C(=O)/C(F)=C/c2ccccc2)c(OC)c1
inhibition at 10 µM (RAW264.7 [1]): 47.4%

COc1cccc(/C=C(\F)C(=O)c2c(O)cc(OC)cc2OC)c1
inhibition at 10 µM (RAW264.7 [1]): 58.1%

COc1cc(/C=C/C(=O)c2ccc(F)cc2)cc(OC)c1OC
IC50 (RAW264.7 [4]): 0.033 µM

COc1cccc(/C=C(\C)C(=O)c2c(O)cc(OC)cc2OC)c1
inhibition at 10 µM (RAW264.7 [1]): 68.3%

COc1ccc(/C=C/C(=O)c2c(O)cc(OC)cc2OC)cc1 [FLAVOKAWAIN A]
inhibition at 10 µM (RAW264.7 [1]): 79.5%

COc1ccc(OC)c(/C=C(\F)C(=O)c2c(O)cc(OC)cc2OC)c1
inhibition at 10 µM (RAW264.7 [1]): 42.6%

COc1cc(O)c(C(=O)/C=C/c2ccc(C)cc2)c(OC)c1
inhibition at 10 µM (RAW264.7 [1]): 82.1%
IC50 (RAW264.7 [2]): 6.3 µM
IC50 (RAW264.7 [3]): > 40 µM

COc1cc(O)c(C(=O)/C(C)=C/c2ccccc2)c(OC)c1
inhibition at 10 µM (RAW264.7 [1]): 57.5%

COc1cccc(/C=C/C(=O)c2ccc(OC)cc2O)c1
inhibition at 10 µM (RAW264.7 [1]): 82.5%
IC50 (RAW264.7 [2]): 3.2 µM
IC50 (RAW264.7 [3]): 29.7 µM
